The text below walks through data of ChEMBL document CHEMBL5550138, “Histidine-Covalent Stapled Alpha-Helical Peptides Targeting hMcl-1” (J Med Chem, 2024).

Activity calls are given as the source filed them. The rule behind the calls is not given here. Positions of bridges follow the written chain, without caps; N, C: chain ends. Non-standard residues stand in square brackets, D forms with d. Residues, ends and D or L forms follow the SMILES beside them. *: point of attachment. Benzoyl(2-OMe,5-SO2F) = COc1ccc(S(=O)(=O)F)cc1C(=O)*; Ser(allyl) = C=CCOC[C@H](N)C(=O)O; S5 = C=CCCC[C@](C)(N)C(=O)O; Dap = NC[C@H](N)C(=O)O

The target in test [1] is T1, Induced myeloid leukemia cell differentiation protein Mcl-1 (Homo sapiens, UniProt Q07820). The test can be described thus: Displacement of biotinylated BH3 peptide from N-terminal His6-tagged human Mcl-1 ligand binding domain (172 to 323 residues) expressed in Escherichia coli BL21(DE3) gold pLysS cells preincubated with protein for 2 hrs followed by incubation with BH3 peptide for 2 hrs by DELFIA assay.
T1 sequence (Q07820 whole entry, the tested form may be a part): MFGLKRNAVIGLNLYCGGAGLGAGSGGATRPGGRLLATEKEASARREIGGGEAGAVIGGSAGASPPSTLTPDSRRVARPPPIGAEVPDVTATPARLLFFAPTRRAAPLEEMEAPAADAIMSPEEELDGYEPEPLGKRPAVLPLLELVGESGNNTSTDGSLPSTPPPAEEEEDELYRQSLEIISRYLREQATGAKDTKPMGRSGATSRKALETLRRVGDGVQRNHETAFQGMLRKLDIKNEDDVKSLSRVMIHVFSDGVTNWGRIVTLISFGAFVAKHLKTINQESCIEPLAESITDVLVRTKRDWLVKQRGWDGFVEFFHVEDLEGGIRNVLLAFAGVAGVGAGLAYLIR

For test [2], the species on record is Homo sapiens. The test can be described thus: Covalent binding affinity to N-terminal His6-tagged human Mcl-1 ligand binding domain (172 to 323 residues) His252Ala mutant expressed in Escherichia coli BL21(DE3) gold pLysS cells assessed as stable covalent adduct formation by measuring band shift at 100 uM incubated for 16 hrs by SDS PAGE analysis.
Test [3] has as its target T2, Bcl-2-related protein A1 (Homo sapiens) (UniProt Q16548).
T2 sequence (whole entry): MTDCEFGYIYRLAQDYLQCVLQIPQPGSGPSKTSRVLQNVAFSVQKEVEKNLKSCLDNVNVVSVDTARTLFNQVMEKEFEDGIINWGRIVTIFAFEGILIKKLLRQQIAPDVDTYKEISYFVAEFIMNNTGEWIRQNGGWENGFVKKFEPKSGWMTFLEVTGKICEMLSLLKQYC
Nature of the test: Covalent binding affinity to N-terminal His6-tagged human Bfl-1 (1 to 149 residues) assessed as band shift at 100 uM incubated for 16 hrs by SDS PAGE analysis.

Test [4] addresses T1, Induced myeloid leukemia cell differentiation protein Mcl-1. Nature of the test: Covalent binding affinity to N-terminal His6-tagged human Mcl-1 ligand binding domain (172 to 323 residues) expressed in Escherichia coli BL21(DE3) gold pLysS cells assessed as stable covalent adduct formation by measuring band shift at 100 uM incubated for 16 hrs by SDS PAGE analysis.
Test [5] is filed under the species Homo sapiens. The test can be described thus: Covalent binding affinity to N-terminal His6-tagged human Mcl-1 ligand binding domain (172 to 323 residues) Lys234Ala mutant expressed in Escherichia coli BL21(DE3) gold pLysS cells assessed as stable covalent adduct formation by measuring band shift at 100 uM incubated for 16 hrs by SDS PAGE analysis.

As for `CC[C@H](C)[C@H](NC(=O)[C@H](CCCNC(=N)N)NC(=O)[C@]1(C)CCC/C=C\CCC[C@](C)(NC(=O)[C@@H](NC(=O)[C@@H](CNC(=O)c2cc(S(=O)(=O)F)ccc2OC)NC(C)=O)[C@@H](C)CC)C(=O)N[C@H](CCC(=O)O)C(=O)N[C@@H](CCC(N)=O)C(=O)N[C@@H](CC(C)C)C(=O)N1)C(=O)NCC(=O)N[C@@H](CC(=O)O)C(=O)N[C@@H](CCCNC(=N)N)C(=O)N[C@@H](Cc1ccccc1)C(N)=O`, in test [1], the 50% inhibitory concentration (IC50) turned out to be 0.174 µM. The outcome (in the test filed under Homo sapiens [2]; in test [4]; in the test listed under Homo sapiens [5]) was Active. In addition, the outcome in test [3] was inactive.
In turn, `CC[C@H](C)[C@H](NC(=O)[C@H](CNC(=O)c1cc(S(=O)(=O)F)ccc1OC)NC(C)=O)C(=O)N[C@@H](C)C(=O)N[C@@]1(C)CCC/C=C\CCC[C@@](C)(C(=O)N[C@H](C(=O)NCC(=O)N[C@@H](CC(=O)O)C(=O)N[C@@H](CCCNC(=N)N)C(=O)N[C@@H](Cc2ccccc2)C(N)=O)[C@@H](C)CC)NC(=O)[C@H](CCCNC(=N)N)NC(=O)[C@H](CC(C)C)NC(=O)[C@H](CCC(N)=O)NC1=O` (Ac-[Dap](Benzoyl(2-OMe,5-SO2F))IA[S5]QLR[S5]IGDRF-NH2; staple (Z) 4-8) came in with an IC50 in test [1] of 0.014 µM. In addition, the result (in the test listed under Homo sapiens [2]; in test [4]; in the test listed under Homo sapiens [5]) was Active. The result in test [3] was inactive.
For the molecule `CC[C@H](C)[C@H](NC(=O)[C@H](C)NC(=O)[C@H](CCCNC(=N)N)NC(=O)[C@H](CC(C)C)NC(=O)[C@H](CCC(N)=O)NC(=O)[C@]1(C)CCC/C=C/CCC[C@](C)(NC(C)=O)C(=O)N[C@@H](CNC(=O)c2cc(S(=O)(=O)F)ccc2OC)C(=O)N[C@@H]([C@@H](C)CC)C(=O)N[C@@H](C)C(=O)N1)C(=O)NCC(=O)N[C@@H](CC(=O)O)C(=O)N[C@@H](CCCNC(=N)N)C(=O)N[C@@H](Cc1ccccc1)C(N)=O` (Ac-[S5][Dap](Benzoyl(2-OMe,5-SO2F))IA[S5]QLRAIGDRF-NH2; staple (E) 1-5), the IC50 in test [1] was determined as 0.035 µM. Also, the result (in the test filed under Homo sapiens [2]; in test [4]; in the test filed under Homo sapiens [5]) was Active. In addition, the result in test [3] was inactive.
For the molecule `CC[C@H](C)[C@H](NC(=O)[C@H](C)NC(=O)[C@H](CCCNC(=N)N)NC(=O)[C@H](CC(C)C)NC(=O)[C@H](CCC(N)=O)NC(=O)[C@]1(C)CCC/C=C/CCC[C@](C)(NC(C)=O)C(=O)N[C@@H](CNC(=O)c2cc(S(=O)(=O)F)ccc2OC)C(=O)N[C@@H]([C@@H](C)CC)C(=O)N[C@@H](C)C(=O)N1)C(=O)NCC(=O)N[C@@H](CC(=O)O)C(=O)N[C@@H](C)C(=O)N[C@@H](Cc1ccccc1)C(N)=O` (Ac-[S5][Dap](Benzoyl(2-OMe,5-SO2F))IA[S5]QLRAIGDAF-NH2; staple (E) 1-5), the IC50 in test [1] turned out to be 0.017 µM. Moreover, the outcome (in the test listed under Homo sapiens [2]; in test [4]; in the test listed under Homo sapiens [5]) was Active. Besides, the result in test [3] was inactive.
Molecule `CC[C@H](C)[C@H](NC(=O)[C@H](CNC(=O)c1cc(S(=O)(=O)F)ccc1OC)NC(C)=O)C(=O)N[C@@H](C)C(=O)N[C@@]1(C)CCC/C=C\CCC[C@@](C)(C(=O)N[C@H](C(=O)NCC(=O)N[C@@H](CC(=O)O)C(=O)N[C@@H](C)C(=O)N[C@@H](Cc2ccccc2)C(N)=O)[C@@H](C)CC)NC(=O)[C@H](CCCNC(=N)N)NC(=O)[C@H](CC(C)C)NC(=O)[C@H](CCC(N)=O)NC1=O` (Ac-[Dap](Benzoyl(2-OMe,5-SO2F))IA[S5]QLR[S5]IGDAF-NH2; staple (Z) 4-8) came in with an IC50 in test [1] of 0.012 µM. Also, the outcome (in the test listed under Homo sapiens [2]; in test [4]; in the test listed under Homo sapiens [5]) was Active. Moreover, the outcome in test [3] was inactive.
The molecule `CC[C@H](C)[C@H](NC(=O)[C@H](CC(=O)O)NC(=O)[C@H](CCCNC(=N)N)NC(=O)[C@H](CC(C)C)NC(=O)[C@H](CCC(N)=O)NC(=O)[C@]1(C)CCC/C=C/CCC[C@](C)(NC(C)=O)C(=O)N[C@@H](CNC(=O)c2cc(S(=O)(=O)F)ccc2OC)C(=O)N[C@@H]([C@@H](C)CC)C(=O)N[C@@H](C)C(=O)N1)C(=O)NCC(=O)N[C@@H](CC(=O)O)C(=O)N[C@@H](CCCNC(=N)N)C(=O)N[C@@H](Cc1ccccc1)C(N)=O` (Ac-[S5][Dap](Benzoyl(2-OMe,5-SO2F))IA[S5]QLRDIGDRF-NH2; staple (E) 1-5) returned an IC50 in test [1] of 0.03 µM. Besides, the result (in the test filed under Homo sapiens [2]; in test [4]; in the test listed under Homo sapiens [5]) was Active. For the same molecule, in test [3], the result was inactive.
The molecule `CC[C@H](C)[C@H](NC(=O)[C@@H]1CCCCn2cc(nn2)CCC[C@H](NC(=O)[C@H](C)NC(=O)[C@@H](NC(=O)[C@H](CNC(=O)c2cc(S(=O)(=O)F)ccc2OC)NC(C)=O)[C@@H](C)CC)C(=O)N[C@@H](CCC(N)=O)C(=O)N[C@@H](CC(C)C)C(=O)N[C@@H](CCCNC(=N)N)C(=O)N1)C(=O)NCC(=O)N[C@@H](CC(=O)O)C(=O)N[C@@H](CCCNC(=N)N)C(=O)N[C@@H](Cc1ccccc1)C(N)=O` came in with an IC50 in test [1] of 0.021 µM. Also, the outcome (in the test filed under Homo sapiens [2]; in test [4]; in the test filed under Homo sapiens [5]) was Active. Also, the outcome in test [3] was inactive.
In test [1], `CC[C@H](C)[C@H](NC(=O)[C@H](CNC(=O)c1cc(S(=O)(=O)F)ccc1OC)NC(C)=O)C(=O)N[C@@H](C)C(=O)N[C@H]1COC/C=C\CCC[C@@](C)(C(=O)N[C@H](C(=O)NCC(=O)N[C@@H](CC(=O)O)C(=O)N[C@@H](CCCNC(=N)N)C(=O)N[C@@H](Cc2ccccc2)C(N)=O)[C@@H](C)CC)NC(=O)[C@H](CCCNC(=N)N)NC(=O)[C@H](CC(C)C)NC(=O)[C@H](CCC(N)=O)NC1=O` (Ac-[Dap](Benzoyl(2-OMe,5-SO2F))IA[Ser(allyl)]QLR[S5]IGDRF-NH2; staple (Z) 4-8) yielded an IC50 of 0.0066 µM. The result (in the test listed under Homo sapiens [2]; in test [4]; in the test filed under Homo sapiens [5]) was Active. Moreover, the result in test [3] was inactive.
In test [1], `CC[C@H](C)[C@H](NC(=O)[C@H](CCCNC(=N)N)NC(=O)[C@H](CCCNC(=N)N)NC(=O)[C@H](CC(C)C)NC(=O)[C@H](CCC(N)=O)NC(=O)[C@H](CCC(=O)O)NC(=O)[C@H](C)NC(=O)[C@@H](NC(=O)[C@H](CNC(=O)c1cc(S(=O)(=O)F)ccc1OC)NC(C)=O)[C@@H](C)CC)C(=O)NCC(=O)N[C@@H](CC(=O)O)C(=O)N[C@@H](CCCNC(=N)N)C(=O)N[C@@H](Cc1ccccc1)C(N)=O` (Ac-[Dap](Benzoyl(2-OMe,5-SO2F))IAEQLRRIGDRF-NH2) returned an IC50 of 0.018 µM.
